Source: article PMC11562494 (BMC Chemistry, 2024)
In brackets after ≈: the same amount, converted by molar mass. Several values for one entry are separate records, joined by “and”; a condition that tells them apart may be missing. Identical values can stand only once. Like-named read-outs stand apart in the source and are kept apart here. Each block holds one compound with its values, some of them ahead of it.

Columns and labels:
E. coli [1] = settings: cited from earlier work
[2] = tested on: methicillin-resistant S. aureus; settings: cited from earlier work
WI38 cells [3] = settings: read-out: WI-38 IC50 ± SD; normal WI38 cells, MTT; cited from earlier work
S. aureus [4] = settings: cited from earlier work
B. subtilis = settings: cited from earlier work
S. aureus [5] = settings: cited from earlier work; remark: listed apart in the source
DNA gyrase A = DNA gyrase A (Escherichia coli, UniProt P0AES4); experiment: DNA gyrase supercoiling assay; type: biochemical; settings: IC50 ± SD DNA gyrase A, E. coli DNA gyrase supercoiling
E. cloacae = experiment: Broth dilution MIC/MBC; type: cell-based, Enterobacter cloacae
E. coli [6] = experiment: Time-kill kinetic test; type: cell-based; settings: 1x MIC
WI38 cells [7] = experiment: In vitro cytotoxicity MTT assay; settings: Homo sapiens, WI-38, 48 h, read-out: WI-38 IC50 ± SD
S. faecalis = experiment: Broth dilution MIC/MBC; type: cell-based, Streptococcus faecalis
E. coli [8] = experiment: Broth dilution MIC/MBC; type: cell-based, Escherichia coli
C. albicans [9] = experiment: Broth dilution MIC/MFC; type: cell-based, Candida albicans
B. pumilus = experiment: Broth dilution MIC/MBC; type: cell-based, Bacillus pumilus
S. cerevisiae = experiment: Broth dilution MIC/MFC; type: cell-based, Saccharomyces cerevisiae
Pseudomonas aeruginosa = settings: cited from earlier work
Escherichia coli = settings: cited from earlier work
C. albicans [10] = settings: cited from earlier work
Aspergillus fumigatus = settings: cited from earlier work

SMILES: CC1(C)S[C@@H]2[C@H](NC(=O)[C@H](N)c3ccc(O)cc3)C(=O)N2[C@H]1C(=O)O [amoxicillin]
MIC E. coli (E. coli [1]): 0.01 µM (≈ 3.65 ng/mL)

SMILES: CN[C@H](CC(C)C)C(=O)N[C@H]1C(=O)N[C@@H](CC(N)=O)C(=O)N[C@H]2C(=O)N[C@H]3C(=O)N[C@H](C(=O)N[C@H](C(=O)O)c4cc(O)cc(O)c4-c4cc3ccc4O)[C@H](O)c3ccc(c(Cl)c3)Oc3cc2cc(c3O[C@@H]2O[C@H](CO)[C@@H](O)[C@H](O)[C@H]2O[C@H]2C[C@](C)(N)[C@H](O)[C@H](C)O2)Oc2ccc(cc2Cl)[C@H]1O [vancomycin]
MIC methicillin-resistant S. aureus [2]: 1 µg/mL (≈ 0.69 µM)

SMILES: O=C(O)c1cn(C2CC2)c2cc(N3CCNCC3)c(F)cc2c1=O [Cipro., ciprofloxacin]
IC50 (WI38 cells [3]): 23.9 ± 1.58 µM
IZ S. aureus (S. aureus [4]): 22 mm

SMILES: N[C@@H](C(=O)N[C@@H]1C(=O)N2C(C(=O)O)=C(Cl)CS[C@H]12)c1ccccc1 [cefaclor]
MIC B. subtilis (B. subtilis): 2.4 µg/mL (≈ 6.53 µM)
MIC S. aureus (S. aureus [5]): 2.4 µg/mL (≈ 6.53 µM)

IC50 (DNA gyrase A): 11.5 µM
MBC/ MIC ratio E. cloacae (E. cloacae): 4
MIC (E. cloacae; Enterobacter cloacae, read-out: MIC E. cloacae): 15.6 µg/mL
MBC/ MIC ratio S. faecalis (S. faecalis): 2
MIC (S. faecalis; Enterococcus faecalis, read-out: MIC S. faecalis): 31.3 µg/mL
MBC/ MIC ratio E. coli (E. coli [8]): 4
MIC (E. coli [8]; Escherichia coli, read-out: MIC E. coli): 3.91 µg/mL
MFC/ MIC ratio C. albicans (C. albicans [9]): 2
MIC (C. albicans [9]; Candida albicans, read-out: MIC C. albicans, broth dilution): 62.5 µg/mL
MBC/ MIC ratio B. pumilus (B. pumilus): 2
MIC (B. pumilus; Bacillus pumilus, read-out: MIC B. pumilus): 62.5 µg/mL
MFC/ MIC ratio S. cerevisiae (S. cerevisiae): 2
MIC (S. cerevisiae; Saccharomyces cerevisiae, read-out: MIC S. cerevisiae): 62.5 µg/mL
SMILES: CC(=O)Oc1ccc(-c2c(C(N)=O)c(N)n(N)c(=O)c2C#N)cc1 [Compound 3e, 4-(1,6-diamino-5-carbamoyl-3-cyano-2-oxo-1,2-dihydropyridin-4-yl)phenyl acetate]
MBC (E. cloacae; Enterobacter cloacae, read-out: MBC E. cloacae): 62.5 µg/mL
Time to bactericidal activity against E. coli (E. coli [6]): 90 to 120 min and 120 min
IC50 (WI38 cells [7]): 43.2 ± 1.7 µM
MBC (S. faecalis; Enterococcus faecalis, read-out: MBC S. faecalis): 62.5 µg/mL
MBC (E. coli [8]; Escherichia coli, read-out: MBC E. coli): 15.6 µg/mL
MFC (C. albicans [9]; Candida albicans, read-out: MFC C. albicans): 125 µg/mL
MBC (B. pumilus; Bacillus pumilus, read-out: MBC B. pumilus): 125 µg/mL
MFC (S. cerevisiae; Saccharomyces cerevisiae, read-out: MFC S. cerevisiae): 125 µg/mL

SMILES: [H]/N=C(/N)N[C@H]1[C@H](O)[C@@H](O)[C@H](O[C@@H]2O[C@@H](C)[C@](O)(C=O)[C@H]2O[C@@H]2O[C@@H](CO)[C@H](O)[C@@H](O)[C@@H]2NC)[C@@H](N/C(N)=N\[H])[C@@H]1O [streptomycin]
IZ Pseudomonas aeruginosa (Pseudomonas aeruginosa): 24 mm
IZ E. coli (Escherichia coli): 25 mm

SMILES: C[C@@H]1[C@H](O)[C@@H](C)/C=C/C=C/C=C/C=C/C=C/C=C/C=C/[C@H](O[C@@H]2O[C@H](C)[C@@H](O)[C@H](N)[C@@H]2O)C[C@@H]2O[C@](O)(C[C@@H](O)C[C@@H](O)[C@H](O)CC[C@@H](O)C[C@@H](O)CC(=O)O[C@H]1C)C[C@H](O)[C@H]2C(=O)O [amphotericin B]
MIC C. albicans (C. albicans [10]): 1.95 µg/mL (≈ 2.11 µM)
MIC Aspergillus fumigatus (Aspergillus fumigatus): 1.95 µg/mL (≈ 2.11 µM)
